{"source": "patent US4963566A", "about": "“Benzimidazolyl-sulfinyl-tetrahydroquinolines” (Otsuka Pharmaceutical Co., Ltd., priority 1986, dated 1990)", "data": [{"target": "T1, H^+ +K^+ ATPase (Sus scrofa, UniProt P19156)", "T1 construct": "prepared from porcine stomach; from tissue; host or cells: porcine stomach", "T1 sequence (P19156 2-1034 limits assumed)": "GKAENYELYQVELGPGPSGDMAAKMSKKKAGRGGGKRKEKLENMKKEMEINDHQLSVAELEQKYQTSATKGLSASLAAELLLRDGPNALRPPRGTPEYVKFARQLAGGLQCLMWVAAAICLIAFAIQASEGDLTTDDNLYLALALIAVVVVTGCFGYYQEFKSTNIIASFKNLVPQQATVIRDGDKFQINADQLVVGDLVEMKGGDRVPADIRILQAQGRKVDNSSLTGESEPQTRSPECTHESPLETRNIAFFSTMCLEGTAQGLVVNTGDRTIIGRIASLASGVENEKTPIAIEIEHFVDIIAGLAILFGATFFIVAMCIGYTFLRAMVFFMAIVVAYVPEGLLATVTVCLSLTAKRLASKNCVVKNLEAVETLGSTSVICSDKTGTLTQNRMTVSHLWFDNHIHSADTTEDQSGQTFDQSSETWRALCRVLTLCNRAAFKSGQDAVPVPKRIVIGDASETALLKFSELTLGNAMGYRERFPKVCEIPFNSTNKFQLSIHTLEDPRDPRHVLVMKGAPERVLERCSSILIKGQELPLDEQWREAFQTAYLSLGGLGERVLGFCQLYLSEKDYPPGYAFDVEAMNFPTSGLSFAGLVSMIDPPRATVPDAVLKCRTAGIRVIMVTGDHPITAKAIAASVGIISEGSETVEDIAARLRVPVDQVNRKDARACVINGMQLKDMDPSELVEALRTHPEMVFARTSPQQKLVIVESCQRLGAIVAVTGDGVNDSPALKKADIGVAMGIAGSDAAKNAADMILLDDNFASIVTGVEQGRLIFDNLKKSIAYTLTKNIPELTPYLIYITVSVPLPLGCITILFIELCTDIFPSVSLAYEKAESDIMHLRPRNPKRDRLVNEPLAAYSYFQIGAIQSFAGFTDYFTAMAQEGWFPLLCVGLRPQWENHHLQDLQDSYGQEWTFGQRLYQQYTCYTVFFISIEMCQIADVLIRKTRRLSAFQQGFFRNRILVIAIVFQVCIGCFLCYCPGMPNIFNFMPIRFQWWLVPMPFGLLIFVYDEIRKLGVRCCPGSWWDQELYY", "T1 sequence (P18434 whole entry partner)": "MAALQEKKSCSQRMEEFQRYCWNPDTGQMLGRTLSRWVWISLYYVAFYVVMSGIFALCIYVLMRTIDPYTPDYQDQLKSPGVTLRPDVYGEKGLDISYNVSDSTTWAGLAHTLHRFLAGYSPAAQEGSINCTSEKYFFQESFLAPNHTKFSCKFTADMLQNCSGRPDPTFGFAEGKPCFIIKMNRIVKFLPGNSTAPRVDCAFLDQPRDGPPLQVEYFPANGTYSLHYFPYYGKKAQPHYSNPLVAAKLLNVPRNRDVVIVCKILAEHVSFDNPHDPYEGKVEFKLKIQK", "assay": "H+ +K+ ATPase inhibition (inorganic phosphoric acid release)", "format": "biochemical", "settings": "enzyme prepared from porcine stomach; 30 min with compound at room temperature, pH 6.1; then 30 min at 37° C., pH 7.4, 20 mM KCl", "method": "H^+ +K^+ ATPase (adenosine triphosphatase) (amount of protein: 10 μg) prepared from porcine stomach was added to a Pipes-TRIS [i.e. 2-amino-2-(hydroxymethyl)-1,3-propanediol] buffer solution (pH 6.1) containing 2 mM of piperazine N,N'-bis(2-ethanesulfonic acid), and the mixture was let stand at room temperature. A test compound was dissolved in dimethyl formamide, and the mixture was added to said H^+ +K^+ ATPase buffer solution so that the final concentration should be 1% and let stand for reaction for 30 minutes at room temperature. Then a 75 mM Pipes-TRIS buffer (1 ml, pH 7.4) (containing 4 mM MgCl2, 4 mM Na2 ATP, and 20 mM KCl) and a 75 mM Pipes-TRIS buffer (1 ml, pH 7.4) (containing 4 mM MgCl2, and 4 mM Na2 ATP) were added to the solution individually to make two kinds of samples and these samples were presented for reaction for 30 minutes at 37° C. 40% Trichloroacetic acid (0.3 ml) was added to each sample to stop the reaction. The solution were subjected to centrifugal separation (3000 rpm) for 10 minutes, and the supernatant was taken off, then the formed inorganic phosphoric acid was measured by Fiske and Subbarow's method [J. Biol. Chem. vol. 66, 375 (1925)]. The value of deducting the amount of inorganic phosphoric acid taken from the Pipes-Tris buffer not containing 20 mM KCl from that taken from the Pipes-Tris buffer containing 20 mM KCl was calculated in terms of unit protein and unit hour to be defined as an activity index of enzyme. Inhibition level (%) in doses of administration was estimated by control values and activity indices of enzyme, and from the obtained inhibition level (%), IC50 (dose of administration of compounds to inhibit in 50%) was obtained.", "units": {"IC50": "nM"}, "values": [{"molecule": "1,4-dimethyl-8-(5-fluoro-6-methyl-2-benzimidazolyl)sulfinylmethyl-1,2,3,4- tetrahydroquinoline [Test compound No. 30]", "IC50": 610}, {"molecule": "CCN1CCCc2cccc(C[S+]([O-])c3nc4ccc(C)cc4[nH]3)c21", "note": "(centres unmarked) [Test compound No. 2, 1-ethyl-8-(5-methyl-2-benzimidazolyl)sulfinylmethyl-1,2,3,4-tetrahydroquinoline]", "IC50": 180}, {"molecule": "CCN1CCCc2cccc(C[S+]([O-])c3nc4ccc(OC)cc4[nH]3)c21", "note": "(centres unmarked) [Test compound No. 3, 1-ethyl-8-(5-methoxy-2-benzimidazolyl)sulfinylmethyl-1,2,3,4-tetrahydroquinoline]", "IC50": 450}, {"molecule": "CCN1CCCc2cccc(C[S+]([O-])c3nc4ccc(F)cc4[nH]3)c21", "note": "(centres unmarked) [Test compound No. 4, 1-ethyl-8-(5-fluoro-2-benzimidazolyl)sulfinylmethyl-1,2,3,4-tetrahydroquinoline]", "IC50": 1000}, {"molecule": "CCN1CCCc2cccc(C[S+]([O-])c3nc4cc(F)c(F)cc4[nH]3)c21", "note": "(centres unmarked) [Test compound No. 5, 1-ethyl-8-(5,6-difluoro-2-benzimidazolyl)sulfinylmethyl-1,2,3,4-tetrahydroquinoline]", "IC50": 440}, {"molecule": "CCN1CCCc2cccc(C[S+]([O-])c3nc4cc(OC)c(F)cc4[nH]3)c21", "note": "(centres unmarked) [Test compound No. 6, 1-ethyl-8-(5-fluoro-6-methoxy-2-benzimidazolyl)sulfinylmethyl-1,2,3,4-tetrahydroquinoline]", "IC50": 620}, {"molecule": "CCOc1cc2[nH]c([S+]([O-])Cc3cccc4c3N(CC)CCC4)nc2cc1F", "note": "(centres unmarked) [Test compound No. 7, 1-ethyl-8-(5-ethoxy-6-fluoro-2-benzimidazolyl)sulfinylmethyl-1,2,3,4-tetrahydroquinoline]", "IC50": 1600}, {"molecule": "CCN1CCCc2cccc(C[S+]([O-])c3nc4ccc(Cl)cc4[nH]3)c21", "note": "(centres unmarked) [Test compound No. 8, 1-ethyl-8-(5-chloro-2-benzimidazolyl)sulfinylmethyl-1,2,3,4-tetrahydroquinoline]", "IC50": 220}, {"molecule": "CCN1CCCc2cccc(C[S+]([O-])c3nc4ccc(C(C)=O)cc4[nH]3)c21", "note": "(centres unmarked) [Test compound No. 9, 1-ethyl-8-(5-acetyl-2-benzimidazolyl)sulfinylmethyl-1,2,3,4-tetrahydroquinoline]", "IC50": 2200}, {"molecule": "CCN1CCCc2cccc(C[S+]([O-])c3nc4ccc(C(F)(F)F)cc4[nH]3)c21", "note": "(centres unmarked) [Test compound No. 10, 1-ethyl-8-(5-trifluoromethyl-2-benzimidazolyl)sulfinylmethyl-1,2,3,4-tetrahydroquinoline]", "IC50": 370}, {"molecule": "CCN1CCCc2cccc(C[S+]([O-])c3nc4cccc(C)c4[nH]3)c21", "note": "(centres unmarked) [Test compound No. 11, 1-ethyl-8-(4-methyl-2-benzimidazolyl)sulfinylmethyl-1,2,3,4-tetrahydroquinoline]", "IC50": 500}, {"molecule": "CCN1CCCc2cccc(C[S+]([O-])c3nc4cc(C)cc(C)c4[nH]3)c21", "note": "(centres unmarked) [Test compound No. 12, 1-ethyl-8-(4,6-dimethyl-2-benzimidazolyl)sulfinylmethyl-1,2,3,4-tetrahydroquinoline]", "IC50": 420}, {"molecule": "CCN1CCCc2cccc(C[S+]([O-])c3nc4cc(C)c(C)cc4[nH]3)c21", "note": "(centres unmarked) [Test compound No. 13, 1-ethyl-8-(5,6-dimethyl-2-benzimidazolyl)sulfinylmethyl-1,2,3,4-tetrahydroquinoline]", "IC50": 170}, {"molecule": "CN1CCCc2cccc(C[S+]([O-])c3nc4ccccc4[nH]3)c21", "note": "(centres unmarked) [Test compound No. 14, 1-methyl-8-(2-benzimidazolyl)sulfinylmethyl-1,2,3,4-tetrahydroquinoline]", "IC50": 170}, {"molecule": "CN1CCCc2cccc(C[S+]([O-])c3nc4ccc(F)cc4[nH]3)c21", "note": "(centres unmarked) [Test compound No. 15, 1-methyl-8-(5-fluoro-2-benzimidazolyl)sulfinylmethyl-1,2,3,4-tetrahydroquinoline]", "IC50": 530}, {"molecule": "COc1ccc2nc([S+]([O-])Cc3cccc4c3N(C)CCC4)[nH]c2c1", "note": "(centres unmarked) [Test compound No. 16, 1-methyl-8-(5-methoxy-2-benzimidazolyl)sulfinylmethyl-1,2,3,4-tetrahydroquinoline]", "IC50": 690}, {"molecule": "Cc1ccc2nc([S+]([O-])Cc3cccc4c3N(C)CCC4)[nH]c2c1", "note": "(centres unmarked) [Test compound No. 17, 1-methyl-8-(5-methyl-2-benzimidazolyl)sulfinylmethyl-1,2,3,4-tetrahydroquinoline]", "IC50": 530}, {"molecule": "CN1CCCc2cccc(C[S+]([O-])c3nc4ccc(Cl)cc4[nH]3)c21", "note": "(centres unmarked) [Test compound No. 18, 1-methyl-8-(5-chloro-2-benzimidazolyl)sulfinylmethyl-1,2,3,4-tetrahydroquinoline]", "IC50": 200}, {"molecule": "Cc1cccc2nc([S+]([O-])Cc3cccc4c3N(C)CCC4)[nH]c12", "note": "(centres unmarked) [Test compound No. 19, 1-methyl-8-(4-methyl-2-benzimidazolyl)sulfinylmethyl-1,2,3,4-tetrahydroquinoline]", "IC50": 410}, {"molecule": "COc1cc2nc([S+]([O-])Cc3cccc4c3N(C)CCC4)[nH]c2cc1F", "note": "(centres unmarked) [Test compound No. 20, 1-methyl-8-(5-fluoro-6-methoxy-2-benzimidazolyl)sulfinylmethyl-1,2,3,4-tetrahydroquinoline]", "IC50": 330}, {"molecule": "C=CCN1CCCc2cccc(C[S+]([O-])c3nc4ccccc4[nH]3)c21", "note": "(centres unmarked) [Test compound No. 21, 1-allyl-8-(2-benzimidazolyl)sulfinylmethyl-1,2,3,4-tetrahydroquinoline]", "IC50": 330}, {"molecule": "C=CCN1CCCc2cccc(C[S+]([O-])c3nc4ccc(OC)cc4[nH]3)c21", "note": "(centres unmarked) [Test compound No. 22, 1-allyl-8-(5-methoxy-2-benzimidazolyl)sulfinylmethyl-1,2,3,4-tetrahydroquinoline]", "IC50": 960}, {"molecule": "C=CCN1CCCc2cccc(C[S+]([O-])c3nc4ccc(F)cc4[nH]3)c21", "note": "(centres unmarked) [Test compound No. 23, 1-allyl-8-(5-fluoro-2-benzimidazolyl)sulfinylmethyl-1,2,3,4-tetrahydroquinoline]", "IC50": 490}, {"molecule": "CCCCN1CCCc2cccc(C[S+]([O-])c3nc4ccccc4[nH]3)c21", "note": "(centres unmarked) [Test compound No. 24, 1-n-butyl-8-(2-benzimidazolyl)sulfinylmethyl-1,2,3,4-tetrahydroquinoline]", "IC50": 180}, {"molecule": "CCCCN1CCCc2cccc(C[S+]([O-])c3nc4ccc(C)cc4[nH]3)c21", "note": "(centres unmarked) [Test compound No. 25, 1-n-butyl-8-(5-methyl-2-benzimidazolyl)sulfinylmethyl-1,2,3,4-tetrahydroquinoline]", "IC50": 330}, {"molecule": "C#CCN1CCCc2cccc(C[S+]([O-])c3nc4ccccc4[nH]3)c21", "note": "(centres unmarked) [Test compound No. 26, 1-propargyl-8-(2-benzimidazolyl)sulfinylmethyl-1,2,3,4-tetrahydroquinoline]", "IC50": 1600}, {"molecule": "Cc1ccc2nc([S+]([O-])Cc3cccc4c3N(Cc3ccccc3)CCC4)[nH]c2c1", "note": "(centres unmarked) [Test compound No. 28, 1-benzyl-8-(5-methyl-2-benzimidazolyl)sulfinylmethyl-1,2,3,4-tetrahydroquinoline]", "IC50": 650}, {"molecule": "CC1CCN(C)c2c(C[S+]([O-])c3nc4ccccc4[nH]3)cccc21", "note": "(centres unmarked) [Test compound No. 29, 1,4-dimethyl-8-(2-benzimidazolyl)sulfinylmethyl-1,2,3,4-tetrahydroquinolin]", "IC50": 250}, {"molecule": "CCN1CCCc2cc(Br)cc(C[S+]([O-])c3nc4ccccc4[nH]3)c21", "note": "(centres unmarked) [Test compound No. 31, 1-ethyl-6-bromo-8-(2-benzimidazolyl)sulfinylmethyl-1,2,3,4-tetrahydroquinoline]", "IC50": 6400}]}]}
